Measured values reported in patent US20010011081A1, “Pharmaceutical composition comprising L- carnitine or alkanoyl L-carnitine for the prevention and treatment of diseases brought about by lipid metabolism disorders” (Sigma-Tau Industrie Parmaceutiche Riunite S.p.A., priority 1995, published 2001).
Entries after “also recorded” stand apart in the source; their conditions may differ.

Legend:
[1] = test system: experimentally obese rats; experiment: Tests in experimentally obese rats on a lipogenic diet for fifteen days (food consumption, body weight, serum triglycerides, epididymal fat); type: in vivo, Wistar rats; conditions: for MEAN DAILY FOOD CONSUMPTION (g) PER ANIMAL After 15 days / MEAN DAILY FOOD CONSUMPTION (g) PER ANIMAL Before treatment / Final body weight increase (g) AFTER 15 DAY-TREATMENT / SERUM Triglycerides AFTER 15 DAY-TREATMENT / Epididimal fat AFTER 15 DAY-TREATMENT: lipogenic diet
Description: Male Wistar rats aged about 2 months were fed on a lipogenic diet (50% glucose, 20% casein, 4% cellulose, 5% salt mixture, 1% hazel nut oil, 18% starch, 1% vitamin mixture).
This diet was administered for fifteen days consecutively to different groups of rats, one of which served as a control group, whereas in the other groups the diet was administered together with calcium hydroxycitrate (1%-2%) or Garcinia cambogia extract (2%-4%) or L-carnitine (2%-4%) or acetyl L-carnitine or propionyl L-carnitine at the same doses, or together with various combinations of these products at the same doses. At the end of the fifteenth day of treatment, food consumption was evaluated in treated rats vs. controls and increases in body weight and in serum triglycerides and epididymal fat were measured.

[2] = test system: Wistar rats with hypercholesterolaemia induced by diet; experiment: Experimental hypercholesterolaemia test (diet-induced, six weeks); type: in vivo; conditions: serum
Description: The results of tests conducted in Wistar rats with hypercholesterolaemia induced by diet according to the method described by C. […] Treatment both with L-carnitine and with calcium hydroxycitrate or with Garcinia cambogia extract, or with a combination of these products, was initiated together with a hypercholesterolaemia-inducing diet and continued for six weeks consecutively. At the end of this period, the assay was performed on the serum of the control animals and on that of the treated animals according to the method described by P. Roschlan (Clin. Chem. Clin. Biochem. 12, 403, 1975).

[3] = test system: fructose-induced hypertriglyceridaemia; experiment: Experimental hypertriglyceridaemia test (oral fructose); type: in vivo, Wistar rats; conditions: for EXPERIMENTALLY-INDUCED HYPERTRIGYCERIDAEMIA (serum triglycerides): 5 days before and two hours after 3 g fructose
Description: In these tests, male Wistar rats serum triglyceride elevation was induced experimentally by means of the oral administration of fructose according to the method disclosed by L. A. V. Carlson (J. Atheroscler. Res. 8, 667, 1968; Atherosclerosis 16, 349, 1972). In the 5-day period prior to administration of 3 g of fructose, the rats, divided into groups, were treated with L-carnitine or its derivatives or with calcium hydroxycitrate or Garcinia cambogia extract at different doses, or with various combinations of these products.
The administration of these products was then repeated two hours after administration of fructose, and 5 hours later all animals were sacrificed. Triglyceride assay was then performed according to the method of R. K. Donabedian (Clin. Chem 20, 632, 1974).

[4] = test system: atherosclerotic vascular lesions; experiment: Experimental atherosclerosis test (atherogenic diet for six weeks); type: in vivo, Wistar rats
Excerpt: Also in atherosclerotic vascular lesions induced experimenatlly according to the method of M. R. Malinow (Atherosclerosis 48, 105, 1983), with administration of an atherogenic diet (24% casein, 10% cotton oil, 5% salt, 60% sugar, 1% cholesterol, Vit D2 200 mUST/g of diet) for six weeks consecutively to different groups of male Wistar rats, it has been shown that the combination of carnitines plus calcium hydroxycitrate or Garcinia cambogia extract is capable of substantially potentiating the anti-atherogenic effect.
This was assessed by measuring the thickness of the abdominal aorta and the intensity of staining induced by Sudan IV using a scoring system from 1 to 5, according to degree of severity.

[5] = fifteen days of treatment on a lipogenic diet
[6] = g 1/100 g diet, listed as calcium hydroxycitrate
[7] = g 2/100 g diet, listed as calcium hydroxycitrate

Molecule | MEAN DAILY FOOD CONSUMPTION (g) PER ANIMAL After 15 days ([1]; g 2/100 g diet) [g] | MEAN DAILY FOOD CONSUMPTION (g) PER ANIMAL After 15 days ([1]; g 4/100 g diet) [g] | MEAN DAILY FOOD CONSUMPTION (g) PER ANIMAL Before treatment ([1]; g 2/100 g diet) [g] | MEAN DAILY FOOD CONSUMPTION (g) PER ANIMAL Before treatment ([1]; g 4/100 g diet) [g] | change in daily food consumption (in words) [1, 5] | Final body weight increase (g) AFTER 15 DAY-TREATMENT ([1]; g 2/100 g diet) [g] | SERUM Triglycerides AFTER 15 DAY-TREATMENT ([1]; g 2/100 g diet) [mg/100 ml] | Final body weight increase (g) AFTER 15 DAY-TREATMENT ([1]; g 4/100 g diet) [g] | SERUM Triglycerides AFTER 15 DAY-TREATMENT ([1]; g 4/100 g diet) [mg/100 ml] | EXPERIMENTALLY-INDUCED HYPERCHOLESTEROLEMIA, TOTAL CHOLESTEROL ([2]; g 2/100 g diet) [mg/dL] | EXPERIMENTALLY-INDUCED HYPERCHOLESTEROLEMIA, TOTAL CHOLESTEROL ([2]; g 4/100 g diet) [mg/dL] | EXPERIMENTALLY-INDUCED HYPERTRIGYCERIDAEMIA (serum triglycerides) ([3]; g 0.5/Kg) [mg/100 ml] | EXPERIMENTALLY-INDUCED HYPERTRIGYCERIDAEMIA (serum triglycerides) ([3]; g 1/Kg) [mg/100 ml] | severity of atherosclerotic lesions / anti-atherogenic effect (abdominal aorta thickness, Sudan IV staining score 1 to 5) [4] | also measured
CCC(=O)O[C@H](CC(=O)[O-])C[N+](C)(C)C [Propionyl L-carnitine] | 17.1 ± 0.38 | 18.5 ± 0.48 | 17.7 ± 0.56 | 18.2 ± 0.44 | No changes compared to controls; also recorded: non-significant changes | 62.4 ± 3.9 | 88.4 ± 8.16 | 58.7 ± 3.7 | 82.7 ± 6.6 | 250.6 ± 10.1 | 235.3 ± 9.6 | 184.2 ± 6.8 | 180.4 ± 7.9 |  | Epididimal fat AFTER 15 DAY-TREATMENT ([1]; g 4/100 g diet): 4.0 ± 5.6 g
C[N+](C)(C)C[C@H](O)CC(=O)[O-] [L-carnitine] |  | 17.8 ± 0.41 | 17.3 ± 0.35 | 18.4 ± 0.61 | No changes compared to controls; also recorded: non-significant changes | 66.2 ± 4.9 | 92.55 ± 7.7 | 64.5 ± 5.1 | 90.44 ± 6.8 | 270.4 ± 5.1 | 260.6 ± 4.4 | 190.4 ± 9.6 | 190.8 ± 8.6 | capable of reducing the severity of the atherosclerotic lesions | 
CC(=O)O[C@H](CC(=O)[O-])C[N+](C)(C)C [Acetyl L-carnitine] | 18.4 ± 0.44 | 18.8 ± 0.57 | 18.6 ± 0.39 | 18.2 ± 0.41 | No changes compared to controls; also recorded: non-significant changes | 60.4 ± 7.1 | 95.81 ± 8.2 | 60.1 ± 6.1 | 90.8 ± 7.5 | 266.7 ± 7.7 | 255.4 ± 9.4 | 191.2 ± 9.1 | 188.4 ± 5.5 |  | 
Calcium hydroxycitrate | 15.1 ± 0.46 |  | 18.8 ± 0.44 |  | substantial reduction | 38.9 ± 3.8 | 73.66 ± 7.1 |  |  | 180.5 ± 8.1 |  | 170.6 ± 8.5 | 145.5 ± 8.5 | capable of reducing the severity of the atherosclerotic lesions | MEAN DAILY FOOD CONSUMPTION (g) PER ANIMAL After 15 days ([1]; g 1/100 g diet): 17.1 ± 0.35 g; MEAN DAILY FOOD CONSUMPTION (g) PER ANIMAL After 15 days [1, 6]: 17.1 g; MEAN DAILY FOOD CONSUMPTION (g) PER ANIMAL After 15 days [1, 7]: 15.1 g; MEAN DAILY FOOD CONSUMPTION (g) PER ANIMAL Before treatment ([1]; g 1/100 g diet): 19.2 ± 0.65 g; MEAN DAILY FOOD CONSUMPTION (g) PER ANIMAL Before treatment [1, 6]: 19.2 g; MEAN DAILY FOOD CONSUMPTION (g) PER ANIMAL Before treatment [1, 7]: 18.8 g; body weight gain (in words) [1, 5]: reduced; Epididimal fat AFTER 15 DAY-TREATMENT ([1]; g 1/100 g diet): 3.91 ± 0.36 g; Final body weight increase (g) AFTER 15 DAY-TREATMENT ([1]; g 1/100 g diet): 46.6 ± 4.1 g; SERUM Triglycerides AFTER 15 DAY-TREATMENT ([1]; g 1/100 g diet): 76.84 ± 6.9 mg/100 ml; Epididimal fat AFTER 15 DAY-TREATMENT ([1]; g 2/100 g diet): 3.32 ± 0.39 g; EXPERIMENTALLY-INDUCED HYPERCHOLESTEROLEMIA, TOTAL CHOLESTEROL ([2]; g 1/100 g diet): 196.6 ± 9.6 mg/dL; total cholesterol values (in words) [2]: fair degree of lowering; fructose-induced hypertriglyceridaemia (in words) ([3]; rat, in vivo): reduced
